Measured values as given in patent publication US20240252488A1 (KOREA RESEARCH INSTITUTE OF CHEMICAL TECHNOLOGY, priority 2020, published 2024).
pKd: −log10 of the molar value.

Assays:
FADD−/− Jurkat cells = experiment: Necroptosis inhibition assay, TNF-α-induced necroptosis (CellTiter-Glo 2.0); type: cell-based, human; conditions: TNF-α 15 ng/mL; for Necroptosis inhibition assay (Rescue %) 1 μM: compound 1 μM; for Necroptosis inhibition assay (Rescue %) 10 μM: compound 10 μM
In short: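 Necroptosis induced by 15 ng/mL TNF-α (final) for 20–24 h at 37 °C, after a 30 min room-temperature pretreatment of FADD-deficient Jurkat cells with 0.1, 1 or 10 μM compound. ATP-based luminescence gave viability, from which inhibition rate and cytotoxicity were derived.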

MLKL [1] = biological target: T1, MLKL (Homo sapiens, UniProt Q8NB16); experiment: MLKL degradation assay in HepG2 cell line (western blot); type: cell-based; parameters: endogenous in cells; host or cells: HepG2 or HaCaT; conditions: cell line not given; for Degradation assay (Degradation %) 1 μM: compound 1 μM; for Degradation assay (Degradation %) 10 μM: compound 10 μM
T1 sequence (Q8NB16 1-471): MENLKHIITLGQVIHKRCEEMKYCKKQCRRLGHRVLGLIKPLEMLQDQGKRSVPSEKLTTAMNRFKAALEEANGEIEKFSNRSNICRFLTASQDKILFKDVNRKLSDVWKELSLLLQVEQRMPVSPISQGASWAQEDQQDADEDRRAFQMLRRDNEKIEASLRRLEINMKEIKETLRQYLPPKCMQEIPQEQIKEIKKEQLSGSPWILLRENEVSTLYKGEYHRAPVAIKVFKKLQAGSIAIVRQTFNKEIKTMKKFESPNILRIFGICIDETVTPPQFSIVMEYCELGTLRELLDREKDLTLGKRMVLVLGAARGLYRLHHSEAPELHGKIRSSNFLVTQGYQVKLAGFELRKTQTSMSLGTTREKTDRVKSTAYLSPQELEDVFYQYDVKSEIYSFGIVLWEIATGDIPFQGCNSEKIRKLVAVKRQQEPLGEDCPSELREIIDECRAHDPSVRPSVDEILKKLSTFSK
In short: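 Western blot chemiluminescence of MLKL in equal-protein lysates (10-15 μg, BCA-adjusted). Before lysis, HepG2 cells were exposed to 1 or 10 μM (final) test compound for 20-24 h at 37 °C.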

MLKL [2] = biological target: T1, MLKL; experiment: Measurement of binding affinity with MLKL receptor (competitive binding assay, Kd); parameters: made in house; host or cells: HEK 293 cell line (T7 phage in E. coli BL21-derived host is also described)
In short: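 Kd from an immobilized-ligand competition format: the DNA-tagged kinase from HEK 293 expression is eluted and quantified by qPCR. Compounds added from 111× DMSO stocks, final DMSO 0.9%.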

| Degradation assay (Degradation %) 1 μM (MLKL [1]) [%] | Degradation assay (Degradation %) 10 μM (MLKL [1]) [%] | pKd (MLKL [2]) | Compound | Necroptosis inhibition assay (Rescue %) 1 μM (FADD−/− Jurkat cells; FADD−/− Jurkat cells) [%] | Necroptosis inhibition assay (Rescue %) 10 μM (FADD−/− Jurkat cells; FADD−/− Jurkat cells) [%] | Necroptosis inhibition assay (Rescue %) 1 μM (FADD−/− Jurkat cells) [%] | Necroptosis inhibition assay (Rescue %) 10 μM (FADD−/− Jurkat cells) [%] |
| --- | --- | --- | --- | --- | --- | --- | --- |
| 73.04 | 66.71 | 8.85 | Nc1ncc(-c2cnn(C3CCN(CC4CCN(C(=O)CCc5cccc6c5C(=O)N(C5CCC(=O)NC5=O)C6=O)CC4)CC3)c2)nc1C(=O)O[C@@H](C(=O)Nc1ccc(F)cc1)c1ccccc1 (stereo partly drawn) [TDH-336, (R)-2-((4-fluorophenyl)amino)-2-oxo-1-phenylethyl 3-amino-6-(1-(1-((1-(3-(2-(2,6-dioxopiperidin-3-yl)-1,3-dioxoisoindolin-4-yl)propanoyl)piperidin-4-yl)methyl)piperidin-4-yl)-1H-pyrazol-4-yl)pyrazine-2-carboxylate] | – | – | 39.89 | 19.67 |
| 69.45 | 82.68 | 9.30 | Nc1ncc(-c2cnn(C3CCN(C4CC5(CCN(CC6CCN(C(=O)c7cccc(C(=O)NC8CCC(=O)NC8=O)c7)CC6)CC5)C4)CC3)c2)nc1C(=O)O[C@@H](C(=O)Nc1ccc(F)cc1)c1ccccc1 (stereo partly drawn) [TDH-544, (R)-2-((4-fluorophenyl)amino)-2-oxo-1-phenylethyl 3-amino-6-(1-(1-(7-((1-(3-((2,6-dioxopiperidin-3-yl)carbamoyl)benzoyl)piperidin-4-yl)methyl)-7-azaspiro[3.5]nonan-2-yl)piperidin-4-yl)-1H-pyrazol-4-yl)pyrazine-2-carboxylate] | 35.33 | 31.42 | – | – |
| 88.53 | 88.65 | 9.22 | COc1ccc(C(=O)N2CCC(OCCN3CCC(CN4CCC(n5cc(-c6cnc(N)c(C(=O)O[C@@H](C(=O)Nc7ccc(F)cc7)c7ccccc7)n6)cn5)CC4)CC3)CC2)cc1N1CCC(=O)NC1=O [TDH-506, (R)-2-((4-fluorophenyl)amino)-2-oxo-1-phenylethyl 3-amino-6-(1-(1-((1-(2-((1-(3-(2,4-dioxotetrahydropyrimidin-1(2H)-yl)-4-methoxybenzoyl)piperidin-4-yl)oxy)ethyl)piperidin-4-yl)methyl)piperidin-4-yl)-1H-pyrazol-4-yl)pyrazine-2-carboxylate] | 75.45 | 48.09 | – | – |
| 5.5 | 52.04 | 8.85 | Nc1ncc(-c2cnn(C3CCN(CCOCCOCCNC(=O)CNc4ccc5c(c4)C(=O)N(C4CCC(=O)NC4=O)C5=O)CC3)c2)nc1C(=O)O[C@@H](C(=O)Nc1ccc(F)cc1)c1ccccc1 (stereo partly drawn) [TDH-103, (R)-2-((4-fluorophenyl)amino)-2-oxo-1-phenylethyl 3-amino-6-(1-(1-(2-(2-(2-(2-((2-(2,6-dioxopiperidin-3-yl)-1,3-dioxoisoindolin-5-yl)amino)acetamido)ethoxy)ethoxy)ethyl)piperidin-4-yl)-1H-pyrazol-4-yl)pyrazine-2-carboxylate] | – | – | 34.93 | 59.65 |
| 62.45 | 64.73 | 7.33 | Nc1ncc(-c2cnn(C3CCN(CCCCCCCCCCNC(=O)C4CCN(c5ccc6c(c5)C(=O)N(C5CCC(=O)NC5=O)C6=O)CC4)CC3)c2)nc1C(=O)O[C@@H](C(=O)Nc1ccc(F)cc1)c1ccccc1 (stereo partly drawn) [TDH-157, (R)-2-((4-fluorophenyl)amino)-2-oxo-1-phenylethyl 3-amino-6-(1-(1-(10-(1-(2-(2,6-dioxopiperidin-3-yl)-1,3-dioxoisoindolin-5-yl)piperidine-4-carboxamido)decyl)piperidin-4-yl)-1H-pyrazol-4-yl)pyrazine-2-carboxylate] | – | – | 37.7 | 45.37 |

The remaining lines, values behind:

| Compound | Degradation assay (Degradation %) 1 μM (MLKL [1]) [%] | Degradation assay (Degradation %) 10 μM (MLKL [1]) [%] | pKd (MLKL [2]) | Necroptosis inhibition assay (Rescue %) 1 μM (FADD−/− Jurkat cells; FADD−/− Jurkat cells) [%] | Necroptosis inhibition assay (Rescue %) 10 μM (FADD−/− Jurkat cells; FADD−/− Jurkat cells) [%] | Necroptosis inhibition assay (Rescue %) 1 μM (FADD−/− Jurkat cells) [%] | Necroptosis inhibition assay (Rescue %) 10 μM (FADD−/− Jurkat cells) [%] |
| --- | --- | --- | --- | --- | --- | --- | --- |
| Nc1ncc(-c2cnn(C3CCN(C(=O)CCC4CCN(C(=O)C5CN(c6ccc7c(c6)C(=O)N(C6CCC(=O)NC6=O)C7=O)C5)CC4)CC3)c2)nc1C(=O)O[C@@H](C(=O)Nc1ccc(F)cc1)c1ccccc1 (stereo partly drawn) [TDH-428, (R)-2-((4-fluorophenyl)amino)-2-oxo-1-phenylethyl 3-amino-6-(1-(1-(3-(1-(1-(2-(2,6-dioxopiperidin-3-yl)-1,3-dioxoisoindolin-5-yl)azetidine-3-carbonyl)piperidin-4-yl)propanoyl)piperidin-4-yl)-1H-pyrazol-4-yl)pyrazine-2-carboxylate] | 58.66 | 85.95 | 8.39 | 27.27 | 9.58 | – | – |
| Nc1ncc(-c2cn(C3CCN(CC4CCN(C(=O)CNc5ccc6c(c5)C(=O)N(C5CCC(=O)NC5=O)C6=O)CC4)CC3)nn2)nc1C(=O)OC(C(=O)Nc1ccc(F)cc1)c1ccccc1 (stereo not shown) [TDH-223, 2-((4-fluorophenyl)amino)-2-oxo-1-phenylethyl 3-amino-6-(1-(1-((1-((2-(2,6-dioxopiperidin-3-yl)-1,3-dioxoisoindolin-5-yl)glycyl)piperidin-4-yl)methyl)piperidin-4-yl)-1H-1,2,3-triazol-4-yl)pyrazine-2-carboxylate] | 29.38 | 12.51 | 7.64 | – | – | 34.97 | 23.64 |
| Nc1ncc(-c2cnn(C3CCN(CCOC4CCN(C(=O)CNc5cccc6c5C(=O)N(C5CCC(=O)NC5=O)C6=O)CC4)CC3)c2)nc1C(=O)OC(C(=O)Nc1ccc(F)cc1)c1ccccc1 (stereo not shown) [TDH-249, 2-((4-fluorophenyl)amino)-2-oxo-1-phenylethyl 3-amino-6-(1-(1-(2-((1-((2-(2,6-dioxopiperidin-3-yl)-1,3-dioxoisoindolin-4-yl)glycyl)piperidin-4-yl)oxy)ethyl)piperidin-4-yl)-1H-pyrazol-4-yl)pyrazine-2-carboxylate] | 35.81 | 28.42 | 8.27 | – | – | 45.5 | 44.81 |
| Nc1ncc(-c2cnn(C3CCN(CCOCCOCCOCCNC(=O)CNc4cccc5c4C(=O)N(C4CCC(=O)NC4=O)C5=O)CC3)c2)nc1C(=O)O[C@@H](C(=O)Nc1ccc(F)cc1)c1ccccc1 (stereo partly drawn) [TDH-143, (R)-2-((4-fluorophenyl)amino)-2-oxo-1-phenylethyl 3-amino-6-(1-(1-(1-((2-(2,6-dioxopiperidin-3-yl)-1,3-dioxoisoindolin-4-yl)amino)-2-oxo-6,9,12-trioxa-3-azatetradecan-14-yl)piperidin-4-yl)-1H-pyrazol-4-yl)pyrazine-2-carboxylate] | 64 | 85.29 | 8.35 | – | – | 20.58 | 64.35 |
| Nc1ncc(-c2cnn(C3CCN(C4CC5(CCN(CC6CCN(C(=O)CNc7ccc8c(c7)C(=O)N(C7CCC(=O)NC7=O)C8=O)CC6)CC5)C4)CC3)c2)nc1C(=O)O[C@@H](C(=O)Nc1ccc(F)cc1)c1ccccc1 (stereo partly drawn) [TDH-443, (R)-2-((4-fluorophenyl)amino)-2-oxo-1-phenylethyl 3-amino-6-(1-(1-(7-((1-((2-(2,6-dioxopiperidin-3-yl)-1,3-dioxoisoindolin-5-yl)glycyl)piperidin-4-yl)methyl)-7-azaspiro[3.5]nonan-2-yl)piperidin-4-yl)-1H-pyrazol-4-yl)pyrazine-2-carboxylate] | 84.23 | 86.93 | 9.28 | 59.05 | −65.46 | – | – |
| Nc1ncc(-c2cnn(C3CCN(CCCCCCNC(=O)CNc4cccc5c4C(=O)N(C4CCC(=O)NC4=O)C5=O)CC3)c2)nc1C(=O)O[C@@H](C(=O)Nc1ccc(F)cc1)c1ccccc1 (stereo partly drawn) [TDH-101, (R)-2-((4-fluorophenyl)amino)-2-oxo-1-phenylethyl 3-amino-6-(1-(1-(6-(2-((2-(2,6-dioxopiperidin-3-yl)-1,3-dioxoisoindolin-4-yl)amino)acetamido)hexyl)piperidin-4-yl)-1H-pyrazol-4-yl)pyrazine-2-carboxylate] | 35.85 | 29.42 | 8.72 | – | – | 50.77 | 18.45 |
